Drawing on patent publication EP1105395B1, “PHOTOCYCLIZED RAPAMYCINS” (priority 1998, dated 2000), this text covers MIC for three compounds.

Holding throughout (assay): Antifungal activity, microtiter broth dilution MIC
Assay type in all cases: cell-based
(In general: Broth dilution looks for growth in wells or tubes with falling amounts of substance.)

One test relates to Aspergillus flavus. To be noted: Aspergillus flavus ID ATCC 12963, 35 °C, 24-48 hours. Here is the method: (§1) Antifungal activity for the compounds of this invention was established by evaluating a representative compound of this invention (Compound I) against several strains of fungi. Briefly the following procedure was used to evaluate such activity. A 96 U-bottom microtiter plate was filled (50 µl/well) with RPMI 1640. The compounds to be evaluated were placed in appropriate wells, and serial diluted in successive wells to provide 11 dilutions. The concentrations ranged from 64 through 0.06 µg/ml. An adjusted inoculum of fungi (50 µl) was added to each well and the plates were incubated at 35 °C for 24-48 hours. […]

In another test the test system is Aspergillus fumigatus. To be noted: Aspergillus fumigatus ID ATCC 26933, 35 °C, 24-48 hours. Here is the method:
as §1

The subject of another test is Aspergillus niger. To be noted: Aspergillus niger ID S-430, 35 °C, 24-48 hours. Here is the method:
as §1

The test system of a further test is Candida albicans. To be noted: 35 °C, 24-48 hours. The method, then: as §1
A further test concerns Candida glabrata. To be noted: Candida glabrata ID ATCC 90030, 35 °C, 24-48 hours. Here is the method:
as §1

The next test deals with Candida krussii. To be noted: Candida krussii ID 94-2, 35 °C, 24-48 hours. Here is the method: as §1
The next test has as its system Candida lusitaniae. To be noted: Candida lusitaniae ID 94-3, 35 °C, 24-48 hours. Here is the method:
as §1

For a further test, the system named is Candida parapsilosis. To be noted: 35 °C, 24-48 hours. The method, then: as §1
For a further test, the system named is Candida pseudotropicalis. To be noted: Candida pseudotropicalis ID ATCC 28838, 35 °C, 24-48 hours. The method, then: as §1
A further test deals with Candida rugosa. To be noted: Candida rugosa ID 94-10, 35 °C, 24-48 hours. Here is the method:
as §1

In the next test the test system is Candida tropicalis. To be noted: 35 °C, 24-48 hours. The method, then:
as §1

Another test has as its system Candida zeylanoided. To be noted: Candida zeylanoided ID 94-15, 35 °C, 24-48 hours. The method, then:
as §1

The test system of the next test is Cryptococcus neoformans. To be noted: Cryptococcus neoformans ID ATCC 90112, 35 °C, 24-48 hours. Here is the method:
as §1

Test [1] deals with Filobasidiella neoformans. To be noted: Filobasidiella neoformans ID ATCC 7472, 35 °C, 24-48 hours. The method, then:
as §1

The test system of a further test is Saccharomyces cerevisiae. To be noted: Saccharomyces cerevisiae ID ATCC 2601, 35 °C, 24-48 hours. The method, then:
as §1

Where [2] appears, read: Candida albicans, ATCC90028, Candida albicans ID ATCC 90028, read-out: MIC.
Where [3] appears, read: Candida albicans, Candida albicans ID 94-1, read-out: MIC.
Where [4] appears, read: Candida albicans, Candida albicans ID 1063, read-out: MIC.
[5] abbreviates: Candida albicans, Candida albicans ID 1117, read-out: MIC.
The mark [6] stands for this setting: Candida albicans, Candida albicans ID C-83, read-out: MIC.
[7] abbreviates: Nakaseomyces glabratus, ATCC90030, read-out: MIC.
[8] abbreviates: Clavispora lusitaniae, read-out: MIC.
The mark [9] stands for this setting: Lodderomyces parapsilosis, ATCC90018, Candida parapsilosis ID ATCC 90018, read-out: MIC.
The mark [10] stands for this setting: Lodderomyces parapsilosis, Candida parapsilosis ID 94-8, read-out: MIC.
The mark [11] stands for this setting: Lodderomyces parapsilosis, Candida parapsilosis ID 94-9, read-out: MIC.
Setting [12] is: Kluyveromyces marxianus, ATCC28838, read-out: MIC.
The mark [13] stands for this setting: Candida tropicalis ID 94-14, read-out: MIC.
[14] abbreviates: Cryptococcus neoformans, ATCC7472, read-out: MIC.

In brackets after ≈: the same amount, converted by molar mass. Read-outs that look alike come from different tables or passages of the source.

For orientation: MIC means the least concentration at which growth counts as inhibited.

As to `C[C@@H]1[C@H](O)[C@@H](C)/C=C/C=C/C=C/C=C/C=C/C=C/C=C/[C@H](O[C@@H]2O[C@H](C)[C@@H](O)[C@H](N)[C@@H]2O)C[C@@H]2O[C@](O)(C[C@@H](O)C[C@@H](O)[C@H](O)CC[C@@H](O)C[C@@H](O)CC(=O)O[C@H]1C)C[C@H](O)[C@H]2C(=O)O` [Amphtericin B], the MIC is 2 µg/mL (≈ 2.16 µM) in the test on Aspergillus flavus; 0.25 µg/mL (≈ 0.271 µM) against Aspergillus fumigatus; 0.25 µg/mL (≈ 0.271 µM) against Aspergillus niger; not above 0.12 µg/mL with Candida albicans (Candida albicans ID 94-1); 0.25 µg/mL (≈ 0.271 µM) with Candida albicans (Candida albicans ID 1063); 0.25 µg/mL (≈ 0.271 µM) in the test on Candida albicans (Candida albicans ID 1117). Moreover, the MIC in the test with Candida albicans (Candida albicans ID ATCC 90028) is 0.25 µg/mL (≈ 0.271 µM); against Candida albicans (Candida albicans ID C-83), 0.25 µg/mL (≈ 0.271 µM); in the test on Candida glabrata, 0.25 µg/mL (≈ 0.271 µM); against Candida krussii, 0.5 µg/mL (≈ 0.541 µM); against Candida lusitaniae, not above 0.12 µg/mL; in the test on Candida parapsilosis (Candida parapsilosis ID 94-8), 0.25 µg/mL (≈ 0.271 µM). The MIC in the test with Candida parapsilosis (Candida parapsilosis ID 94-9) is 0.5 µg/mL (≈ 0.541 µM); against Candida parapsilosis (Candida parapsilosis ID ATCC 90018), not above 0.12 µg/mL; in the test with Candida pseudotropicalis, 0.25 µg/mL (≈ 0.271 µM); against Candida rugosa it was 0.25 µg/mL (≈ 0.271 µM); with Candida tropicalis (Candida tropicalis ID 94-13), 0.25 µg/mL (≈ 0.271 µM); with Candida tropicalis (Candida tropicalis ID 94-14) it was 0.25 µg/mL (≈ 0.271 µM). Further, the MIC is 0.25 µg/mL (≈ 0.271 µM) in the test with Candida zeylanoided, not above 0.12 µg/mL against Cryptococcus neoformans, 0.12 µg/mL (≈ 0.13 µM) in test [1] and not above 0.12 µg/mL with Saccharomyces cerevisiae.

For the compound `OC(Cn1cncn1)(Cn1cncn1)c1ccc(F)cc1F` [Fluconazole], the MIC in the test on Aspergillus flavus (ATCC12963, read-out: MIC) is more than 16 µg/mL; in the test on Aspergillus fumigatus (ATCC26933, read-out: MIC), more than 16 µg/mL; in the test on Aspergillus niger (read-out: MIC) it was more than 16 µg/mL; in the test with Candida albicans (setting [2]), not below 16 µg/mL; with Candida albicans (setting [3]), not below 16 µg/mL; with Candida albicans (setting [4]), 4 µg/mL (≈ 13.1 µM). Besides, the MIC in the test with Candida albicans (setting [5]) was 8 µg/mL (≈ 26.1 µM); in the test on Candida albicans (setting [6]), not below 16 µg/mL; with Candida glabrata (setting [7]), 4 µg/mL (≈ 13.1 µM); in the test on Candida krussii (read-out: MIC), not below 16 µg/mL; with Candida lusitaniae (setting [8]), 1 µg/mL (≈ 3.27 µM); in the test on Candida parapsilosis (setting [9]), 0.5 µg/mL (≈ 1.63 µM). Besides, the MIC is 0.5 µg/mL (≈ 1.63 µM) with Candida parapsilosis (setting [10]); 0.5 µg/mL (≈ 1.63 µM) with Candida parapsilosis (setting [11]); not above 0.12 µg/mL in the test on Candida pseudotropicalis (setting [12]); 2 µg/mL (≈ 6.53 µM) with Candida rugosa (Diutina rugosa, read-out: MIC); not below 16 µg/mL in the test on Candida tropicalis (Candida tropicalis ID 94-13); not below 16 µg/mL in the test with Candida tropicalis (setting [13]). Besides, the MIC was not below 16 µg/mL in the test with Candida zeylanoided (read-out: MIC); 8 µg/mL (≈ 26.1 µM) with Cryptococcus neoformans (ATCC90112, read-out: MIC); 16 µg/mL (≈ 52.2 µM) in test [1] (setting [14]); 8 µg/mL (≈ 26.1 µM) in the test with Saccharomyces cerevisiae (ATCC2601, read-out: MIC).

As for `Clc1ccc(COC(Cn2ccnc2)c2ccc(Cl)cc2Cl)c(Cl)c1` (stereo not drawn) [Miconazole], the MIC in the test on Aspergillus flavus (ATCC12963, read-out: MIC) was 0.5 µg/mL (≈ 1.2 µM); in the test with Aspergillus fumigatus (ATCC26933, read-out: MIC) it was 1 µg/mL (≈ 2.4 µM); in the test with Aspergillus niger (read-out: MIC), 4 µg/mL (≈ 9.61 µM); in the test on Candida albicans (setting [2]) it was 0.5 µg/mL (≈ 1.2 µM); in the test with Candida albicans (setting [3]), 8 µg/mL (≈ 19.2 µM); in the test on Candida albicans (setting [4]) it was 1 µg/mL (≈ 2.4 µM). Moreover, the MIC in the test on Candida albicans (setting [5]) is 1 µg/mL (≈ 2.4 µM); with Candida albicans (setting [6]), 8 µg/mL (≈ 19.2 µM); in the test with Candida glabrata (setting [7]), not above 0.12 µg/mL; in the test with Candida krussii (read-out: MIC), 2 µg/mL (≈ 4.81 µM); with Candida lusitaniae (setting [8]), not above 0.12 µg/mL; with Candida parapsilosis (setting [9]), not above 0.12 µg/mL. Also, the MIC was 0.25 µg/mL (≈ 0.601 µM) with Candida parapsilosis (setting [10]); 0.5 µg/mL (≈ 1.2 µM) in the test with Candida parapsilosis (setting [11]); not above 0.12 µg/mL in the test on Candida pseudotropicalis (setting [12]); not above 0.12 µg/mL in the test with Candida rugosa (Diutina rugosa, read-out: MIC); 4 µg/mL (≈ 9.61 µM) against Candida tropicalis (Candida tropicalis ID 94-13); 4 µg/mL (≈ 9.61 µM) with Candida tropicalis (setting [13]). Further, the MIC with Candida zeylanoided (read-out: MIC) was 0.25 µg/mL (≈ 0.601 µM); with Cryptococcus neoformans (ATCC90112, read-out: MIC), not above 0.12 µg/mL; in [1] (setting [14]), 0.25 µg/mL (≈ 0.601 µM); in the test with Saccharomyces cerevisiae (ATCC2601, read-out: MIC), not above 0.12 µg/mL.
